Laboratory results from PubChem BioAssay (NCI).
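The compound was tested at five concentrations on cells cultured in 96-well plates, with a 48-hour exposure period. GI50 = concentration required for 50% inhibition of growth. TGI: concentration producing complete growth inhibition.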

Key:
Assay in all cases: NCI tumour cell line growth inhibition, 48 h; in the data active = GI50 below about 0.43 µM; inactive = the rest
SW-620 colon = test system: SW-620 colon
HL-60(TB) leukemia = test system: HL-60(TB) leukemia
BT-549 breast = test system: BT-549 breast
NCI-H522 lung = test system: NCI-H522 lung
TK-10 renal = test system: TK-10 renal
OVCAR-8 ovarian = test system: OVCAR-8 ovarian
SN12C renal = test system: SN12C renal
NCI/ADR-RES ovarian = test system: NCI/ADR-RES ovarian
MCF7 breast = test system: MCF7 breast
MOLT-4 leukemia = test system: MOLT-4 leukemia
SR leukemia = test system: SR leukemia
ACHN renal = test system: ACHN renal
SF-268 CNS = test system: SF-268 CNS
UACC-257 melanoma = test system: UACC-257 melanoma
OVCAR-3 ovarian = test system: OVCAR-3 ovarian
SK-MEL-5 melanoma = test system: SK-MEL-5 melanoma
SF-295 CNS = test system: SF-295 CNS
SNB-19 CNS = test system: SNB-19 CNS
UACC-62 melanoma = test system: UACC-62 melanoma
A498 renal = test system: A498 renal
HS 578T breast = test system: HS 578T breast
PC-3 prostate = test system: PC-3 prostate
NCI-H460 lung = test system: NCI-H460 lung
HCT-116 colon = test system: HCT-116 colon
SNB-75 CNS = test system: SNB-75 CNS
SK-OV-3 ovarian = test system: SK-OV-3 ovarian
SK-MEL-2 melanoma = test system: SK-MEL-2 melanoma
COLO 205 colon = test system: COLO 205 colon
MALME-3M melanoma = test system: MALME-3M melanoma
LOX IMVI melanoma = test system: LOX IMVI melanoma
M14 melanoma = test system: M14 melanoma
SF-539 CNS = test system: SF-539 CNS
MDA-MB-435 = test system: MDA-MB-435
RXF 393 renal = test system: RXF 393 renal
MDA-MB-231 breast = test system: MDA-MB-231 breast
786-0 renal = test system: 786-0 renal
IGROV1 ovarian = test system: IGROV1 ovarian
HT29 colon = test system: HT29 colon
K-562 leukemia = test system: K-562 leukemia
EKVX NSCLC = test system: EKVX NSCLC
SK-MEL-28 melanoma = test system: SK-MEL-28 melanoma
UO-31 renal = test system: UO-31 renal
OVCAR-4 ovarian = test system: OVCAR-4 ovarian
NCI-H226 lung = test system: NCI-H226 lung
DU-145 prostate = test system: DU-145 prostate
HCC-2998 colon = test system: HCC-2998 colon
A549 NSCLC = test system: A549 NSCLC
KM12 colon = test system: KM12 colon
T-47D breast = test system: T-47D breast
U251 CNS = test system: U251 CNS
CCRF-CEM leukemia = test system: CCRF-CEM leukemia
OVCAR-5 ovarian = test system: OVCAR-5 ovarian
NCI-H23 lung = test system: NCI-H23 lung
HOP-62 NSCLC = test system: HOP-62 NSCLC
HCT-15 colon = test system: HCT-15 colon
HOP-92 NSCLC = test system: HOP-92 NSCLC
RPMI-8226 leukemia = test system: RPMI-8226 leukemia

COC(=O)C(C)NP(=O)(OCc1ccc(Cn2cnc3c(N)ncnc32)cc1)Oc1ccccc1 (centres undefined)
63.4 µM: TGI (HCT-116 colon)
84.4 µM: TGI (HCC-2998 colon)
65.3 µM: TGI (RPMI-8226 leukemia)
> 69 µM: TGI (NCI-H522 lung)
> 82.1 µM: TGI (OVCAR-3 ovarian)
49.7 µM: TGI (HS 578T breast)
> 84.9 µM: TGI (SK-MEL-28 melanoma)
inactive: GI50 (SW-620 colon) > 83.5 µM | GI50 (HL-60(TB) leukemia) 79.9 µM | GI50 (BT-549 breast) 24.2 µM | GI50 (NCI-H522 lung) 28.4 µM | GI50 (TK-10 renal) > 100 µM | GI50 (OVCAR-8 ovarian) 76.8 µM | GI50 (SN12C renal) 73.4 µM | GI50 (NCI/ADR-RES ovarian) > 100 µM | GI50 (MCF7 breast) 36.8 µM | GI50 (MOLT-4 leukemia) 32.2 µM | GI50 (SR leukemia) > 100 µM | GI50 (ACHN renal) > 100 µM | GI50 (SF-268 CNS) 36.9 µM | GI50 (UACC-257 melanoma) > 100 µM | GI50 (OVCAR-3 ovarian) 34.7 µM | GI50 (SK-MEL-5 melanoma) 6.39 µM | GI50 (SF-295 CNS) > 78.9 µM | GI50 (SNB-19 CNS) > 64.2 µM | GI50 (UACC-62 melanoma) 28.6 µM | GI50 (A498 renal) > 100 µM | GI50 (HS 578T breast) 15.5 µM | GI50 (PC-3 prostate) 31.3 µM | GI50 (NCI-H460 lung) 67.9 µM | GI50 (HCT-116 colon) 26 µM | GI50 (SNB-75 CNS) 40.1 µM | GI50 (SK-OV-3 ovarian) > 100 µM | GI50 (SK-MEL-2 melanoma) > 73.9 µM | GI50 (COLO 205 colon) > 91.6 µM | GI50 (MALME-3M melanoma) 20.8 µM | GI50 (LOX IMVI melanoma) 21.4 µM | GI50 (M14 melanoma) 55.4 µM | GI50 (SF-539 CNS) > 100 µM | GI50 (MDA-MB-435) 43 µM | GI50 (RXF 393 renal) 81.5 µM | GI50 (MDA-MB-231 breast) > 63.4 µM | GI50 (786-0 renal) > 100 µM | GI50 (IGROV1 ovarian) 39.1 µM | GI50 (HT29 colon) > 67.8 µM | GI50 (K-562 leukemia) > 93.1 µM | GI50 (EKVX NSCLC) > 81.2 µM | GI50 (SK-MEL-28 melanoma) 30.4 µM | GI50 (UO-31 renal) > 100 µM | GI50 (OVCAR-4 ovarian) > 100 µM | GI50 (NCI-H226 lung) > 93.5 µM | GI50 (DU-145 prostate) > 100 µM | GI50 (HCC-2998 colon) 27.7 µM | GI50 (A549 NSCLC) > 84.2 µM | GI50 (KM12 colon) 25.2 µM | GI50 (T-47D breast) > 56.7 µM | GI50 (U251 CNS) 37.3 µM | GI50 (CCRF-CEM leukemia) 50 µM | GI50 (OVCAR-5 ovarian) > 100 µM | GI50 (NCI-H23 lung) 36.5 µM | GI50 (HOP-62 NSCLC) > 68.6 µM | GI50 (HCT-15 colon) > 100 µM | GI50 (HOP-92 NSCLC) 29.8 µM | GI50 (RPMI-8226 leukemia) 17.1 µM
> 100 µM: TGI (SW-620 colon) | TGI (HL-60(TB) leukemia) | TGI (TK-10 renal) | TGI (OVCAR-8 ovarian) | TGI (SN12C renal) | TGI (NCI/ADR-RES ovarian) | TGI (MCF7 breast) | TGI (MOLT-4 leukemia) | TGI (SR leukemia) | TGI (ACHN renal) | TGI (SF-268 CNS) | TGI (UACC-257 melanoma) | TGI (SF-295 CNS) | TGI (SNB-19 CNS) | TGI (A498 renal) | TGI (PC-3 prostate) | TGI (NCI-H460 lung) | TGI (SNB-75 CNS) | TGI (SK-OV-3 ovarian) | TGI (SK-MEL-2 melanoma) | TGI (COLO 205 colon) | TGI (M14 melanoma) | TGI (SF-539 CNS) | TGI (MDA-MB-435) | TGI (RXF 393 renal) | TGI (MDA-MB-231 breast) | TGI (786-0 renal) | TGI (IGROV1 ovarian) | TGI (HT29 colon) | TGI (K-562 leukemia) | TGI (EKVX NSCLC) | TGI (UO-31 renal) | TGI (OVCAR-4 ovarian) | TGI (NCI-H226 lung) | TGI (DU-145 prostate) | TGI (A549 NSCLC) | TGI (T-47D breast) | TGI (U251 CNS) | TGI (CCRF-CEM leukemia) | TGI (OVCAR-5 ovarian) | TGI (NCI-H23 lung) | TGI (HOP-62 NSCLC) | TGI (HCT-15 colon) | TGI (HOP-92 NSCLC)
57 µM: TGI (MALME-3M melanoma)
> 96.1 µM: TGI (KM12 colon)
53.8 µM: TGI (LOX IMVI melanoma)
72.5 µM: TGI (BT-549 breast)
> 94.1 µM: TGI (UACC-62 melanoma)
33.4 µM: TGI (SK-MEL-5 melanoma)
